The structures appear in SMILES notation. pIC50: −log10 of the molar value.

Our source for the IC50 values is BindingDB's records for doi:10.1016/j.ejmech.2019.111853 (Hangzhou Institute of Innovative Medicine, 2020).

A short description of test [1]: Inhibition of CXCR2-mediated chemotaxis in mouse BAF3 cells.
The nature of test [2]: Antagonist activity at CXCR2 in human neutrophils assessed as reduction in GRO-alpha mediated chemotaxis.

By pIC50 is commonly meant the IC50 on a negative log10 scale, so that one unit is a factor of ten. As for `CC[C@@H](Nc1c(Nc2cccc(C(=O)N3CCN4CCC[C@H]4C3)c2O)c(=O)c1=O)c1ccc(C)o1`, the pIC50 in test [1] was 10.00.
On to `COC(=O)CSc1ccc(C(=O)Nc2ccc(F)cc2)cn1` [[5-(4-Fluoro-phenylcarbamoyl)-pyridin-2-ylsulfanyl]-acetic acid methyl ester], for which the pIC50 in test [2] is 7.38.
